Our source for the IC50 and ΔTm values is article doi:10.1101/2025.09.05.674519v1 (biorxiv, 2025).

Assay [1] addresses T1, NanoLuc-ULK2 (NanoBRET) (Homo sapiens, UniProt Q8IYT8).
T1 sequence (Q8IYT8 1-1036): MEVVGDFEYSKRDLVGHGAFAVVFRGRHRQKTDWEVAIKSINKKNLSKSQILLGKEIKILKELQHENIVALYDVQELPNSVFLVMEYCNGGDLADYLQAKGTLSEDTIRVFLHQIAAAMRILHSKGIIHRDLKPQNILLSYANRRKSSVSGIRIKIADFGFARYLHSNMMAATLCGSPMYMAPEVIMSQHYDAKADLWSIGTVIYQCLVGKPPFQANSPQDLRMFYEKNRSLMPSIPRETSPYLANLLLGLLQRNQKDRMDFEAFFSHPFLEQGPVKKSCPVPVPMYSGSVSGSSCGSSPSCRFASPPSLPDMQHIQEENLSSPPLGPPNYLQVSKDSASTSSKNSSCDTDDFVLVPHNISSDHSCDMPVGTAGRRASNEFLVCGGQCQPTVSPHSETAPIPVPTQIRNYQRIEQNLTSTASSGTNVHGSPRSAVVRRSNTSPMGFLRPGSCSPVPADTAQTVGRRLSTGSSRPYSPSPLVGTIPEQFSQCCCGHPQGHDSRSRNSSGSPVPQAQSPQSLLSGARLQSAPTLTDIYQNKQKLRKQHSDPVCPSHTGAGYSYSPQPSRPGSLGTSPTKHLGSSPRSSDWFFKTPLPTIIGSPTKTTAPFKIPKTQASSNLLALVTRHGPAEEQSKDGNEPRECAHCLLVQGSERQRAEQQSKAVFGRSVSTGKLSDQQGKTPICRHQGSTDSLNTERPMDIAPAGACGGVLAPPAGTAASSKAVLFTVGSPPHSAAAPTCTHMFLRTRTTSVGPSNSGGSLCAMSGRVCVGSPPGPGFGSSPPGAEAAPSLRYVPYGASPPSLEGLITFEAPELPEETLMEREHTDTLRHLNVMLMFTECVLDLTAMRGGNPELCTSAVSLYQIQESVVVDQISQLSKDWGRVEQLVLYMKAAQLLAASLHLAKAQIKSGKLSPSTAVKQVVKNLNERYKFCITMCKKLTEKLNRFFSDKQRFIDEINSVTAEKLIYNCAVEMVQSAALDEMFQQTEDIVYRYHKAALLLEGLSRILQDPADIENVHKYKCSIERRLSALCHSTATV
The experiment in a line: NanoBRET tracer displacement in live HEK293T cells. It is filed as cell-based. A general note: Bioluminescence resonance energy transfer reports proximity on the nanometre scale.

Assay [2] deals with T2, ULK2 (recombinant human ULK2 protein 1-478, ADP-Glo) (Homo sapiens, UniProt Q8IYT8).
T2 sequence (Q8IYT8 1-478): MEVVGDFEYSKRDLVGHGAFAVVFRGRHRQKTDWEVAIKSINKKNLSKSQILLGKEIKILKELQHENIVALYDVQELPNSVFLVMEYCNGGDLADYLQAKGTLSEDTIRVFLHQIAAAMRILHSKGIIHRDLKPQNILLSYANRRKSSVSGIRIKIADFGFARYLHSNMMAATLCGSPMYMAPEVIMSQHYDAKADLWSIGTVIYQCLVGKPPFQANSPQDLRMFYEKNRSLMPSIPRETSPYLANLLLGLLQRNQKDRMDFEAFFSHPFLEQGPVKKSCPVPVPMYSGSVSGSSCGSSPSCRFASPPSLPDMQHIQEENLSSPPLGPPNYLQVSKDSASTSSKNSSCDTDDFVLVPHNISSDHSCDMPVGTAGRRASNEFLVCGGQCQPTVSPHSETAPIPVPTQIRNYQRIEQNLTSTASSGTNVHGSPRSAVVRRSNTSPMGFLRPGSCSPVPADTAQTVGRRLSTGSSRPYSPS
The experiment in a line: ADP-Glo kinase assay. Type of assay: biochemical. (In general: In ADP-Glo the light output rises with the ADP produced.)

The target of assay [3] is T2, ULK2 (recombinant human ULK2 protein 1-478, ADP-Glo). The experiment in a line: biochemical.
Assay [4] addresses T3, ULK2 kinase domain (1-276) (Homo sapiens, UniProt Q8IYT8).
T3 sequence (Q8IYT8 1-276): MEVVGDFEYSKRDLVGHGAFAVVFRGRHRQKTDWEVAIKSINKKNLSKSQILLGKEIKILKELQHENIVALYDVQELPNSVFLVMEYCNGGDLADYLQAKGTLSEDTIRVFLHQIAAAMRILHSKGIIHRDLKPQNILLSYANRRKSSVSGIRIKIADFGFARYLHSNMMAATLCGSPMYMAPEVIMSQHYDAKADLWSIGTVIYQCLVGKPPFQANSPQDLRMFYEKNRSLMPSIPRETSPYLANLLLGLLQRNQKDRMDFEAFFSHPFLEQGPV
The experiment in a line: biochemical. To be noted: read-out: ULK2 PTS (ºC).

Assay [5] concerns the target T1, NanoLuc-ULK2 (NanoBRET). The experiment in a line: cell-based. More on the design: species or system HEK293T.
The next assay concerns the target T4, NanoLuc-ULK1 (NanoBRET) (Homo sapiens, UniProt O75385).
T4 sequence (O75385 1-1050): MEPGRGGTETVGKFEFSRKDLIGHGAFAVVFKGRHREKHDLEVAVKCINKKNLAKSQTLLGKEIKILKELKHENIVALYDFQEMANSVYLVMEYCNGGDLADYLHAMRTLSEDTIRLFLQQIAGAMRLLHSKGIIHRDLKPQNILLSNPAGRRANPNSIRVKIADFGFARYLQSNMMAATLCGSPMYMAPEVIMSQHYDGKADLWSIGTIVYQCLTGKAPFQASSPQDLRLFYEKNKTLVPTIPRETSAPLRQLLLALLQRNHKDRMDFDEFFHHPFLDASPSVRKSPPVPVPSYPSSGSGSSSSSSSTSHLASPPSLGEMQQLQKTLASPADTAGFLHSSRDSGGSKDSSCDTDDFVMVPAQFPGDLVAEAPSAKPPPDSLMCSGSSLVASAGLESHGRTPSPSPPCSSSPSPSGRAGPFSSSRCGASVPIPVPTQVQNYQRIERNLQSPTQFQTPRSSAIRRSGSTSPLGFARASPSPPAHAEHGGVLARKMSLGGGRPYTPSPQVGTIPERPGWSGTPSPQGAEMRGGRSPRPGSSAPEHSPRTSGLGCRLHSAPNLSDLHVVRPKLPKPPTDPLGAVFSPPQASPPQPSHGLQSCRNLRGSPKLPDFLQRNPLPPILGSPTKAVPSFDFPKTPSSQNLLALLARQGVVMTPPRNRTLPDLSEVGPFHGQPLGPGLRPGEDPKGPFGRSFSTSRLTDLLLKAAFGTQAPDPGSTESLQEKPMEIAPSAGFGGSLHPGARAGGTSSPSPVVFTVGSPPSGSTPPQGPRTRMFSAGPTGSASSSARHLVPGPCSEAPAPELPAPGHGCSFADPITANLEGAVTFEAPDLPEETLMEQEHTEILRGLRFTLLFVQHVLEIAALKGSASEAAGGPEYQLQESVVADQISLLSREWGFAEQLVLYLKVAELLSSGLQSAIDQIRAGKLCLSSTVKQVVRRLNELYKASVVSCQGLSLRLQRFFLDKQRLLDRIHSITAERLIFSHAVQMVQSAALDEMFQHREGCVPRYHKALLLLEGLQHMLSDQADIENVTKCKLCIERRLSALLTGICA
Nature of the assay: NanoBRET tracer displacement in live HEK293T cells. Type of assay: cell-based.

For assay [6], the target named is T5, ULK1 (recombinant human ULK1 protein 1-649, ADP-Glo) (Homo sapiens, UniProt O75385).
T5 sequence (O75385 1-649): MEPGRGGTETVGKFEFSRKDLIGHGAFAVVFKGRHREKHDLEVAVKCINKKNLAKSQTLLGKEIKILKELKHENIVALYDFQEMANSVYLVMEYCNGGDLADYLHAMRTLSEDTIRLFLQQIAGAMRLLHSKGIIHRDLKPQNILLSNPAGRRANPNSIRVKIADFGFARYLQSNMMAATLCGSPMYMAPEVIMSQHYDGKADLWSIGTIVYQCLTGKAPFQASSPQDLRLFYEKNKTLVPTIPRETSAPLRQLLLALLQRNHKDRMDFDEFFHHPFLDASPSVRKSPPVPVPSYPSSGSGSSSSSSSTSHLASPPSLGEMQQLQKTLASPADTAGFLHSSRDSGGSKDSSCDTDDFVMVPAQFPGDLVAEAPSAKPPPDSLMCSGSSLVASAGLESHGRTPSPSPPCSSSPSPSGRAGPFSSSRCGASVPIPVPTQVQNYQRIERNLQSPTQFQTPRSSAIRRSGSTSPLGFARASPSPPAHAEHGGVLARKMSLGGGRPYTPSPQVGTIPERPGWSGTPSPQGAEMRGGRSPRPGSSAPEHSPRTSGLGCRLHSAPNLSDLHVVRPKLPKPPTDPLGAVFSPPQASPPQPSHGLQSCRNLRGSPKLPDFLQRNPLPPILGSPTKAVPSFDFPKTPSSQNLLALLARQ
Nature of the assay: ADP-Glo kinase assay. It is filed as biochemical.

Where a name gives a salt, the structure may show the parent alone. Some results are limits rather than exact numbers.

One may read the IC50 as the concentration that inhibits the measured activity by half. For `COc1cc(Nc2ncc(C(F)(F)F)c(NC3CC3)n2)cc(OC)c1OC` [compound 1], the IC50 stood at 172 ± 33 nM at NanoLuc-ULK2 (NanoBRET) [1] and 64 ± 22 nM in assay [2].

Take `O=C1CCc2cc(Nc3ncc(C(F)(F)F)c(NC4CC4)n3)ccc2N1` [compound 2, 6-((4-(Cyclopropylamine)-5-(trifluoromethyl)pyrimidine-2-yl)amino)-3,4-dihydroquinoline-2(1H)-one]: the IC50 at NanoLuc-ULK2 (NanoBRET) [1] came to 174 nM; in assay [2], 118 ± 34 nM.

As for `O=C1Cc2cc(Nc3ncc(C(F)(F)F)c(NC4CC4)n3)ccc2N1` [compound 3, 5-((4-(Cyclopropylamine)-5-(trifluoromethyl)pyrimidin-2-yl)amino)indolin-2-one], the results for the IC50 (in assay [3]; on NanoLuc-ULK2 (NanoBRET) [5]) were 704 ± 63 nM and 1100 ± 454 nM, respectively. The ΔTm at 10 µM in assay [4] turned out to be 3 ± 1.3 °C.

Take `COc1cc(Nc2ncc(Br)c(NC3CC3)n2)cc(OC)c1OC` [compound 6, 5-Bromo-N4-cyclopropyl-N2-(3,4,5-trimethoxyphenyl)pyrimidine-2,4-diamine]: the figures for the IC50 (in assay [3]; against NanoLuc-ULK2 (NanoBRET) [5]) were 217 ± 108 nM and 1470 ± 261 nM, respectively. Also, the ΔTm at 10 µM in assay [4] was found to be 7 ± 0.7 °C.

On to `O=C1CCc2cc(Nc3ncc(Br)c(NC4CC4)n3)ccc2N1` [compound 7, 6-((5-Bromo-4-(cyclopropylamine)pyrimidin-2-yl)amino)-3,4-dihydroquinolin-2(1H)-one], for which the IC50 in assay [3] came out at 896 ± 92 nM; against NanoLuc-ULK2 (NanoBRET) [5] it was 1580 ± 325 nM. For the same molecule, the ΔTm at 10 µM in assay [4] stood at 2 ± 0.8 °C.

For `O=C1CCc2cc(Nc3nccc(NC4CC4)n3)ccc2N1` [compound 8, 8], the figures for the IC50 (at NanoLuc-ULK1 (NanoBRET); in assay [6]) were more than 10000 nM and 2330 ± 667 nM, respectively.

Turning to `O=C1CCc2cc(Nc3ncc(C(F)(F)F)c(NC4CCCC4)n3)ccc2N1` [compound 12, 6-((4-(Cyclopentylamine)-5-(trifluoromethyl)pyrimidin-2-yl)amino)-3,4-dihydroquinolin-2(1H)-one], the IC50 is more than 10000 nM on NanoLuc-ULK1 (NanoBRET) and 25 ± 6 nM in assay [6].

Turning to `O=C1CCc2cc(Nc3ncc(C(F)(F)F)c(NCC(F)(F)F)n3)ccc2N1` [compound 14, 6-((4-((2,2,2-Trifluoroethyl)amino)-5-(trifluoromethyl)pyrimidin-2-yl)amino)-3,4 dihydroquinolin-2(1H)-one], the IC50 came to 464 ± 90 nM in assay [3] and 1820 ± 599 nM at NanoLuc-ULK2 (NanoBRET) [5]. For the same molecule, in assay [4], the ΔTm at 10 µM came to 4 ± 0.1 °C.

Turning to `O=C1CCc2cc(Nc3ncc(C(F)(F)F)c(NCCO)n3)ccc2N1` [compound 15, 6-((4-((2-Hydroxyethyl)amino)-5-(trifluoromethyl)pyrimidin-2-yl)amino)-3,4-dihydroquinolin-2(1H)-one], the IC50 in assay [3] was found to be 980 ± 62 nM; against NanoLuc-ULK2 (NanoBRET) [5], 875 ± 131 nM. The ΔTm at 10 µM in assay [4] stood at 8 ± 0.1 °C.

With `NCCCNc1nc(Nc2ccc3c(c2)CCC(=O)N3)ncc1C(F)(F)F` [compound 19, 6-((4-((3-Aminopropyl)amino)-5-(trifluoromethyl)pyrimidin-2-yl)amino)-3,4 dihydroquinolin-2(1H)-one·HCl], the figures for the IC50 (in assay [3]; against NanoLuc-ULK2 (NanoBRET) [5]) were 480 ± 65 nM and 77 ± 13 nM, respectively. In addition, the ΔTm at 10 µM in assay [4] is 7.5 °C.

For `O=C1CCc2cc(Nc3ncc(C(F)(F)F)c(NCCCNC(=O)C4CC4)n3)ccc2N1` [compound 21, N-(3-((2-((2-Oxo-1,2,3,4-tetrahydroquinolin-6-yl)amino)-5-(trifluoromethyl)pyrimidin-4-yl)amino)propyl)cyclopropanecarboxamide], the IC50 on NanoLuc-ULK2 (NanoBRET) [1] turned out to be 44 ± 10 nM; in assay [2], 50 ± 12 nM. In assay [4], the ΔTm at 10 µM was determined as 8 ± 0.6 °C.
